Columns and labels:
[1] = biological target: T1, human mAChRM1 (Homo sapiens, UniProt P11229); experiment: mAChR M1 cell-based functional assay (calcium mobilization), positive allosteric modulator activity: increase in the EC20 acetylcholine response; conditions: for Emax: PAM mode; for EC50: increase in the EC20 acetylcholine response, read-out: PAM Activity Human M1 EC50
T1 construct: host or cells: CHO-K1
T1 sequence (P11229 1-460): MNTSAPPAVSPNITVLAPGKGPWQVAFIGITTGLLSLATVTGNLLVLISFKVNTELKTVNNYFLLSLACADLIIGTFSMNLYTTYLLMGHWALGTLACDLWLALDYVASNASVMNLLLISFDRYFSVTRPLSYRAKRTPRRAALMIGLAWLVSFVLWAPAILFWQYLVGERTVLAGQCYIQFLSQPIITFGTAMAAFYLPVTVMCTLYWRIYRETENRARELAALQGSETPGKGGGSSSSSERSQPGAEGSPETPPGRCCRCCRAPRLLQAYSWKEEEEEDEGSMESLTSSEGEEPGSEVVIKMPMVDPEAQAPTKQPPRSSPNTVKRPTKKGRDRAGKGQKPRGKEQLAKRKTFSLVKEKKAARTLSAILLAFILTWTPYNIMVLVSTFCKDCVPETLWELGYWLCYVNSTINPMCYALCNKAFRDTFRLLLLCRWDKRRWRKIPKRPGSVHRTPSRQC
How it was run: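 Potentiation is scored as the rise in an EC20 acetylcholine-evoked calcium signal across 11-point (1:3) compound series, fitted with a four-parameter logistic equation to give EC50 and Emax. Read-out is Fluo-4 fluorescence ratio in hM1-transfected CHO-K1 cells, measured kinetically on FDSS.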

[2] = biological target: T1, human mAChRM1; experiment: mAChR M1 cell-based functional assay (calcium mobilization), agonist activity upon compound addition, Emax relative to acetylcholine maximum
How it was run: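 Emax is given as a percentage of the maximal acetylcholine response, from four-parameter curves of compound-evoked calcium mobilization. Human M1-transfected CHO-K1 cells carried Fluo-4 dye, and compound (11 concentrations, 1:3 steps) was applied at 4 s of a 300 s kinetic fluorescence recording.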

[3] = calcium mobilization upon compound addition

## Cn1cc2c(-c3cc(F)c(CN4Cc5ncc(Br)cc5C4=O)c(F)c3)ccc(C(C)(C)O)c2n1 [Compound 173, 3-bromo-6-(2,6-difluoro-4-(7-(2-hydroxypropan-2-yl)-2-methyl-2H-indazol-4-yl)benzyl)-6,7-dihydro-5H-pyrrolo[3,4-b]pyridin-5-one]
[1]
  Emax: 75%
  EC50: 414 nM
[2]; [3]
  Agonist Activity Human M1 EC50: inactive

## Cc1cnc2c(c1)C(=O)N(Cc1c(F)cc(-c3ccc(C(C)(C)O)c4nn(C)cc34)cc1F)C2 [Compound 174, 6-(2,6-difluoro-4-(7-(2-hydroxypropan-2-yl)-2-methyl-2H-indazol-4-yl)benzyl)-3-methyl-6,7-dihydro-5H-pyrrolo[3,4-b]pyridin-5-one]
[1]
  Emax: 80%
  EC50: 531 nM
[2]; [3]
  EC50: ≥ 10000 nM
[2]; relative to the maximum for acetylcholine
  Emax: 17%

## Cn1cc2c(-c3cc(F)c(CN4Cc5ncc(C6CC6)cc5C4=O)c(F)c3)ccc(C(C)(C)O)c2n1 [Compound 175, 3-cyclopropyl-6-(2,6-difluoro-4-(7-(2-hydroxypropan-2-yl)-2-methyl-2H-indazol-4-yl)benzyl)-6,7-dihydro-5H-pyrrolo[3,4-b]pyridin-5-one]
[1]
  Emax: 74%
  EC50: 2590 nM
[2]; [3]
  Agonist Activity Human M1 EC50: inactive

## CCc1cnc2c(c1)C(=O)N(Cc1c(F)cc(-c3ccc(C(C)(C)O)c4nn(C)cc34)cc1F)C2 [Compound 176, 6-(2,6-difluoro-4-(7-(2-hydroxypropan-2-yl)-2-methyl-2H-indazol-4-yl)benzyl)-3-ethyl-6,7-dihydro-5H-pyrrolo[3,4-b]pyridin-5-one]
[1]
  Emax: 78%
  EC50: 1090 nM
[2]; [3]
  Agonist Activity Human M1 EC50: inactive

## CC(C)c1cnc2c(c1)C(=O)N(Cc1c(F)cc(-c3ccc(C(C)(C)O)c4nn(C)cc34)cc1F)C2 [Compound 177, 6-(2,6-difluoro-4-(7-(2-hydroxypropan-2-yl)-2-methyl-2H-indazol-4-yl)benzyl)-3-isopropyl-6,7-dihydro-5H-pyrrolo[3,4-b]pyridin-5-one]
[1]
  Emax: 75%
  EC50: 5100 nM
[2]; [3]
  Agonist Activity Human M1 EC50: inactive

Source: US20260138978A1, “POSITIVE ALLOSTERIC MODULATORS OF THE MUSCARINIC ACETYLCHOLINE RECEPTOR M1” (Vanderbilt University, priority 2022, published 2026)
